Source: article PMC10610214 (Pharmaceuticals, 2023)

Legend:
[1] = target: T1, AChE (from electric eel) (Electrophorus electricus, UniProt O42275); test: biochemical; conditions: for IC50: AChE from electric eel, mean ± SD of three experiments, read-out: AChE Inhibition (IC50); for Selective Index, IC50 (BChE)/IC50 (AChE): AChE selectivity index
T1 construct: AChE (from electric eel); purchased Sigma Chemical Company (St. Louis, MO, USA)
Description: (§1) The ChE inhibitory activity of the test compounds was determined using the modified Ellman’s method. The compounds were dissolved in DMSO (10 mmol/L) and then diluted with PB (phosphate buffer) solution to attain a range of final concentrations. […] Briefly, 100 μL of different concentrations of the test or standard compounds and 100 μL of AChE/BuChE (0.5 U/mL) were added into 48-well plates and then co-incubated at 37 °C for 30 min. […] All concentrations mentioned are final.

[2] = target: T2, BuChE (from equine serum) (Equus caballus, UniProt P81908); test: biochemical; conditions: mean ± SD of three experiments, read-out: BuChE Inhibition (IC50)
T2 construct: BuChE (from equine serum); purchased Sigma Chemical Company (St. Louis, MO, USA); host or cells: equine serum
T2 sequence (P81908 whole entry): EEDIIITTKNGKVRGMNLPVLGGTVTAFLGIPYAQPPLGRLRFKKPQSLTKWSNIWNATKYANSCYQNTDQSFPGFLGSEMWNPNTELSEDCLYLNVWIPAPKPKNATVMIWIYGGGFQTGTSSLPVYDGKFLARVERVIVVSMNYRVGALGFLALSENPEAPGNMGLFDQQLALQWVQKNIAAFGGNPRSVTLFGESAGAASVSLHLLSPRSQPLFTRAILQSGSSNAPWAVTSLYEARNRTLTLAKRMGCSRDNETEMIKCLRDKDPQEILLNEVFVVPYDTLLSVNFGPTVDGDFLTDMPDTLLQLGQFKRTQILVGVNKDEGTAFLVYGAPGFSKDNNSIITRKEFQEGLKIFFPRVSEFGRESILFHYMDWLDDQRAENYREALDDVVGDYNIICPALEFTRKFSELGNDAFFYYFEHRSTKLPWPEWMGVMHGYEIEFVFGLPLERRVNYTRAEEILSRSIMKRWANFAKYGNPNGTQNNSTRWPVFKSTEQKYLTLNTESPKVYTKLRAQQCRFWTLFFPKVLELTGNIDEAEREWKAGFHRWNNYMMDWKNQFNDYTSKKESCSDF
Description: as §1

[3] = test system: H2O2-induced PC12 cells; test: Neuroprotection against H2O2-induced PC12 cell injury (MTT); type: cell-based; conditions: H2O2 250 μM, mean ± SEM
Description: Neuroprotection assay is similar to cytotoxicity. Oxidative cellular damage caused by H2O2 has become one of the important methods to study oxidative damage in neural cells. PC12 cells were seeded into a 96-well plate at a density of 5.0 × 10^3 cells per well. After the cells were incubated overnight, the old medium was discarded. […] After incubating overnight, 20 μL of MTT solution (5 mg/mL, Sigma-Aldrich) was added per well, and the cells were incubated for an additional 4 h. Afterwards, the supernatant was removed and 150 μL of DMSO was added. The 96-well plate was placed on the shaker for 10–15 min, and then the absorbance at 492 nm was measured by a microplate reader.

[4] = test system: PC12 cells; test: Cytotoxicity in PC12 cells (MTT); type: cell-based
Description: The cytotoxicity and neuroprotective effects of the compounds on PC12 cells were evaluated by MTT assay. PC12 cells were seeded into a 96-well plate at a density of 5.0 × 10^3 cells per well. After the cells were incubated overnight, the old medium was discarded. The cells were incubated for another 24 h with fresh medium containing compounds at a concentration of 30 or 50 μM. A total of 20 μL of MTT solution (5 mg/mL, Sigma-Aldrich, Shanghai, China) was then added per well, and the cells were incubated for an additional 4 h. Afterwards, the supernatant was removed and 150 μL of DMSO was added to solubilize formazan crystals. The 96-well plate was placed on the shaker for 10–15 min, and then the absorbance at 492 nm was measured by a microplate reader.

T1 sequence (O42275 24-633): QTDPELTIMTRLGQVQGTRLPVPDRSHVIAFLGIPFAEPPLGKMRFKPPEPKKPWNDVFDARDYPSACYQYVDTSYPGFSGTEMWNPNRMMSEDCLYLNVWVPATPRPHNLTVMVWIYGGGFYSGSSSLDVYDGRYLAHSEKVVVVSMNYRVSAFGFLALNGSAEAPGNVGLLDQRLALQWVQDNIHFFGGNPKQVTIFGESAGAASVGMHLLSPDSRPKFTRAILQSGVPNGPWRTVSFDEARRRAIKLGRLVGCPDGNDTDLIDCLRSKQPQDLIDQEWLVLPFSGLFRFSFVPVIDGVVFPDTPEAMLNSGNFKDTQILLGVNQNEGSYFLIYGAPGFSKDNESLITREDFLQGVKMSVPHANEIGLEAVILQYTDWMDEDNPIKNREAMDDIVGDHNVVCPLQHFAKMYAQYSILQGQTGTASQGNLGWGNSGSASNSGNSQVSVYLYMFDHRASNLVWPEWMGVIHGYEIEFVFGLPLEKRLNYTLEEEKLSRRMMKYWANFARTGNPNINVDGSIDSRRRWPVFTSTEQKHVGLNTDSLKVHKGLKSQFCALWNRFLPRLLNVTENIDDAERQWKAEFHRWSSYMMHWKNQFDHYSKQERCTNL

| SMILES | IC50 [1] | Selective Index, IC50 (BChE)/IC50 (AChE) [1] | IC50 [2] | H2O2-Induced PC12 Cell Viability (% of Control) ([3]; compound 10 μM) | H2O2-Induced PC12 Cell Viability (% of Control) ([3]; compound 30 μM) | Cell Viability (% of Control) ([4]; compound 30 μM) | Cell Viability (% of Control) ([4]; compound 50 μM) |
| --- | --- | --- | --- | --- | --- | --- | --- |
| O=C1c2cc(NS(=O)(=O)c3ccccc3)ccc2-n2c1nc1ccccc1c2=O [4a] | 0.97 ± 0.16 µM | 10.3 | 9.98 ± 0.64 µM | 43.29 ± 3.1 % of Control | 48.5 ± 1.5 % of Control | 99.5 ± 1.7 % of Control | 98.3 ± 3.0 % of Control |
| Cc1ccc(S(=O)(=O)Nc2ccc3c(c2)C(=O)c2nc4ccccc4c(=O)n2-3)cc1 [4b] | 5.75 ± 0.27 µM | 1.5 | 8.61 ± 1.2 µM | 47.36 ± 1.7 % of Control | 59.09 ± 2.5 % of Control | 99.7 ± 0.9 % of Control | 99.5 ± 1.5 % of Control |
| CC(C)(C)c1ccc(S(=O)(=O)Nc2ccc3c(c2)C(=O)c2nc4ccccc4c(=O)n2-3)cc1 [4c] | 2.56 ± 0.32 µM | 3.2 | 8.13 ± 1.21 µM | 45.59 ± 0.7 % of Control | 56.4 ± 1.2 % of Control | 99.5 ± 3.1 % of Control | 98.2 ± 1.7 % of Control |
| CC(C)c1cc(C(C)C)c(S(=O)(=O)Nc2ccc3c(c2)C(=O)c2nc4ccccc4c(=O)n2-3)c(C(C)C)c1 [4d] | > 50 µM | – | > 50 µM | 42.53 ± 2.7 % of Control | 50.1 ± 0.8 % of Control | 99.4 ± 2.4 % of Control | 97.3 ± 3.6 % of Control |
| O=C1c2cc(NS(=O)(=O)c3ccc(Br)cc3)ccc2-n2c1nc1ccccc1c2=O [4e] | 33 ± 1.91 µM | – | > 50 µM | 42.8 ± 1.5 % of Control | 57.51 ± 0.8 % of Control | 99.6 ± 2.1 % of Control | 99.5 ± 2.3 % of Control |
| O=C1c2cc(NS(=O)(=O)c3ccc(F)cc3)ccc2-n2c1nc1ccccc1c2=O [4f] | 0.56 ± 0.07 µM | 21.2 | 11.9 ± 1.86 µM | 45.23 ± 2.2 % of Control | 55.26 ± 0.5 % of Control | 99.4 ± 1.6 % of Control | 98.7 ± 1.1 % of Control |
| O=C1c2cc(NS(=O)(=O)c3cccc(F)c3)ccc2-n2c1nc1ccccc1c2=O [4g] | 3.21 ± 0.39 µM | 6.7 | 21.6 ± 1.79 µM | 59.88 ± 0.9 % of Control | 68.83 ± 2.7 % of Control | 100 ± 1.3 % of Control | 99.7 ± 0.8 % of Control |
| CC(=O)Nc1ccc(S(=O)(=O)Nc2ccc3c(c2)C(=O)c2nc4ccccc4c(=O)n2-3)cc1 [4i] | 8.8 ± 1.23 µM | – | > 50 µM | 34.43 ± 5.5 % of Control | 40.93 ± 2.9 % of Control | 99.6 ± 1.7 % of Control | 98.3 ± 3.0 % of Control |
| COc1ccc(S(=O)(=O)Nc2ccc3c(c2)C(=O)c2nc4ccccc4c(=O)n2-3)cc1 [4j] | > 50 µM | – | > 50 µM | 38.24 ± 3.1 % of Control | 41.69 ± 1.7 % of Control | 99.7 ± 1.6 % of Control | 99.1 ± 1.2 % of Control |
| COc1ccc(S(=O)(=O)Nc2ccc3c(c2)C(=O)c2nc4ccccc4c(=O)n2-3)cc1OC [4k] | 25.4 ± 1.53 µM | – | > 50 µM | 44.35 ± 1.5 % of Control | 46.23 ± 0.6 % of Control | 98.8 ± 1.9 % of Control | 98.2 ± 3.4 % of Control |
| COc1ccc(S(=O)(=O)Nc2ccc3c(c2)C(=O)c2nc4ccccc4c(=O)n2-3)c(OC)c1 [4l] | 18.6 ± 1.77 µM | – | > 50 µM | 36.35 ± 1.6 % of Control | 39.84 ± 2.8 % of Control | 100.2 ± 3.1 % of Control | 99.8 ± 2.7 % of Control |
| O=C1c2cc(NS(=O)(=O)c3ccc(OC(F)(F)F)cc3)ccc2-n2c1nc1ccccc1c2=O [4m] | 7.75 ± 0.21 µM | – | 10.2 ± 1.24 µM | 37.89 ± 4.3 % of Control | 44.98 ± 2.5 % of Control | 99.6 ± 0.8 % of Control | 99.3 ± 2.1 % of Control |
| O=C1c2cc(NS(=O)(=O)c3ccccc3OC(F)(F)F)ccc2-n2c1nc1ccccc1c2=O [4n] | 5.92 ± 0.56 µM | – | 4.93 ± 0.35 µM | 46.53 ± 1.2 % of Control | 52.84 ± 1.8 % of Control | 99.9 ± 0.7 % of Control | 99.7 ± 1.8 % of Control |
| O=C1c2cc(NS(=O)(=O)c3ccccc3C(F)(F)F)ccc2-n2c1nc1ccccc1c2=O [4o] | 2.45 ± 0.25 µM | 3.5 | 8.61 ± 1.2 µM | 42.32 ± 0.7 % of Control | 50.5 ± 0.5 % of Control | 99.6 ± 2.7 % of Control | 98.2 ± 1.7 % of Control |
| O=C1c2cc(NS(=O)(=O)c3c(Cl)cccc3Cl)ccc2-n2c1nc1ccccc1c2=O [4p] | 0.62 ± 0.09 µM | – | > 50 µM | 48.49 ± 4.5 % of Control | 65.6 ± 2.2 % of Control | 99.6 ± 2.7 % of Control | 99.3 ± 2.9 % of Control |
| O=C1c2ccccc2-n2c1nc1ccc(NS(=O)(=O)c3ccccc3)cc1c2=O [8a] | 14 ± 1.67 µM | – | > 50 µM | 39.65 ± 3.1 % of Control | 50.98 ± 1.8 % of Control | 100.1 ± 1.5 % of Control | 99.8 ± 1.7 % of Control |
| Cc1ccc(S(=O)(=O)Nc2ccc3nc4n(c(=O)c3c2)-c2ccccc2C4=O)cc1 [8b] | 4.55 ± 0.8 µM | – | > 50 µM | 42.01 ± 1.7 % of Control | 51.37 ± 2.1 % of Control | 101.2 ± 3.1 % of Control | 99.8 ± 2.4 % of Control |
| CC(C)(C)c1ccc(S(=O)(=O)Nc2ccc3nc4n(c(=O)c3c2)-c2ccccc2C4=O)cc1 [8c] | 15.8 ± 2.6 µM | – | > 50 µM | 39.10 ± 4.5 % of Control | 49.64 ± 4.1 % of Control | 98.4 ± 1.9 % of Control | 96.7 ± 1.9 % of Control |
| CC(C)c1cc(C(C)C)c(S(=O)(=O)Nc2ccc3nc4n(c(=O)c3c2)-c2ccccc2C4=O)c(C(C)C)c1 [8d] | > 50 µM | – | > 50 µM | 39.65 ± 5.2 % of Control | 53.26 ± 1.4 % of Control | 99.8 ± 0.7 % of Control | 98.7 ± 2.6 % of Control |
| O=C1c2ccccc2-n2c1nc1ccc(NS(=O)(=O)c3ccc(Br)cc3)cc1c2=O [8e] | > 50 µM | – | > 50 µM | 41.78 ± 1.2 % of Control | 55.86 ± 0.9 % of Control | 99.8 ± 0.7 % of Control | 99.7 ± 3.1 % of Control |
| O=c1c(O)c(-c2ccc(O)c(O)c2)oc2cc(O)cc(O)c12 [Quercetin, reference compound] | – | – | – | 55.21 ± 1.6 % of Control | 63.27 ± 2.1 % of Control | 99.6 ± 1.1 % of Control | 99.5 ± 1.3 % of Control |
